Assay results as given in patent publication US7749539B2, “Polymeric formulations for drug delivery” (Efrat Biopolymers Ltd., priority 2000, dated 2010).

Columns and labels:
[1] = Release of peptides from liquid poly(SA-RA) 30:70; assay type: physicochemical; settings: 200 mg in 800 mg poly(SA-RA) 30:70, phosphate buffer pH7.4, 37°C
Experimental: Insulin powder (200 mg) was mixed in liquid poly(SA-RA) 30:70 (800 mg) at room temperature. The uniform formulation was added in buffer solution (100 mg in 50 ml phosphate buffer pH7.4 at 37° C.) and the release of insulin to the solution was determined by HPLC. A constant release of insulin for more than 30 days was obtained.

[2] = In vitro release of drug combinations from liquid poly(sebacic-ricinoleic ester anhydride); assay type: physicochemical; settings: for release in combination compared with the drug alone: 1:1 w/w mixture of cisplatin or carboplatin with paclitaxel
Text: The combination of two or more anticancer agents in the polymer implant was investigated. The release of a combination of drugs from liquid formulations of poly(sebacic-ricinoleic ester anhydride) was studied using a 1:1 w/w mixture of cisplatin or carboplatin with paclitaxel.

[3] = intravenous injection, cited from earlier work

With “Insulin: Insulin powder mixed in liquid poly(SA-RA) 30:70” the “duration of constant release” value [1] was “more than 30 days”.

For `CC(=O)O[C@H]1C(=O)[C@@]2(C)[C@H]([C@H](OC(=O)c3ccccc3)[C@]3(O)C[C@H](OC(=O)[C@H](O)[C@@H](NC(=O)c4ccccc4)c4ccccc4)C(C)=C1C3(C)C)[C@]1(OC(C)=O)CO[C@@H]1C[C@@H]2O` [paclitaxel], the “release in combination compared with the drug alone” value [2] is given as “slightly enhanced”, the “maximum tolerated dose (MTD)” value ([3]; female SPF C3H/HeNcrj mice) is given as 26 mg/kg and the “dose at which death due to toxicity was observed” value ([3]; mice) is given as 30 mg/kg.

With `N.N.O=C([O-])C1(C(=O)[O-])CCC1.[Pt+2]` [carboplatin] the “release in combination compared with the drug alone” value [2] was “slower”.

For rapamycine, the “release of co-incorporated drug from the device” value ([2]; incorporated along with paclitaxel or other anticancer agents) was “released constantly”.

In the case of `N.N.[Cl][Pt][Cl]` [cisplatin], the “release in combination compared with the drug alone” value [2] is reported as “slower”.
